{"source": "patent US20090274739A1", "about": "“METHODS AND COMPOSITIONS FOR TREATING NEOINTIMAL HYPERPLASIA” (THE TRUSTEES OF COLUMBIA UNIVERSITY IN THE CITY OF NEW YORK, priority 2006, published 2009)", "test_system": "murine VSMC migration", "assay": "VSMC migration, modified Boyden chamber", "type": "cell-based, mouse", "details": "leptin 6 nM", "experimental": "Migration of VSMCs: Migration was measured using a modified Boyden chamber as previously described (Grinspoon S, et al., J Clin Endocrinol Metab, 1996, 81(11):3861-3). The lower chambers contained PDGF (10 ng/mL), insulin (200 nmol/L), or 0.2% BSA (negative control) in DMEM. 2×10^5 cells were loaded into the top chamber. After 6 h, non-migrating cells were scraped from the upper surface of the filter, and the lower surface of the filter was stained with HEMA 3 Stain Set (Fisher Diagnostics, Middletown, Va.). The number of migrated VSMCs was determined by counting 4 fields at 200× magnification, of constant area per well. Values are expressed as the percentage of cells migrating in response to a chemo-attractant after subtracting the negative control. Experiments were performed thrice in triplicate wells.\nFIG. 5 is a graph that depicts inhibition of migration of VSMCs toward insulin by rapamycin. […]\nPrimary VSMC were isolated from aortic explants of WT, ob/ob, or db/db mice (46). VSMC proliferation was determined using the Cell Titre Aqueous One Solution Proliferation Assay (Promega, Madison, Wis.). Migration to PDGF-BB was assessed in a modified Boyden chamber assay (47).", "data": [{"substance": "Leptin: recombinant leptin; hormone derived from adipose tissue, encoded by the Ob gene", "values": [{"measurement": "PDGF-induced migration of VSMC", "setting": "WT VSMC", "value": "enhanced"}, {"measurement": "PDGF-induced migration of VSMC", "setting": "db/db VSMC", "value": "not"}]}]}
